Reference: patent US12667118B2, “Compositions comprising algae and methods of using same for increasing animal product production” (BLUE OCEAN BARNS, priority 2020, dated 2026)
Where two headings read alike, the source gives them in different places.

Assays:
[1] = tested on: dairy cattle; experiment: Tolerability limits: intake limits of minerals for dairy cattle; assay type: in vivo
[2] = tested on: dairy cattle; conditions: cited from earlier work
[3] = tested on: dairy cattle; experiment: Methane intensity versus normalized bromoform intake (Asparagopsis quantity calculation); assay type: in vivo; conditions: regression constant
Method: In still another embodiment, a regression constant is determined. The regression constant relates the amount of bromoform required to achieve a set percentage of methane reduction per amount of neutral detergent fiber present in the animal's diet. Thus, the algorithm comprises the steps of: i) Determining the target methane reduction percentage and subsequently the target absolute reduction (g CH4/kg milk); ii) Determining cow's NDF intake, based on dry matter intake (DMI) and NDF proportion; iii) Determining the normalized bromoform concentration required (equivalent to the desired absolute reduction divided by the regression constant, where the regression constant is the Reduction in methane intensity (g CH4/kg milk) per unit normalized bromoform intake (mg/kg of NDF); iv) Multiplying by the NDF intake to determine the required bromoform concentration (mg) and v) Dividing by the bromoform concentration in that seaweed to determine amount of seaweed required.

[4] = In vivo fate of bromoform delivered from red macroalgae feed supplement; design: species or system livestock
[5] = tested on: livestock rumens; experiment: Rumen propionate:acetate ratio and meat trans fat in livestock fed red algae; conditions: in vitro and in vivo testing
Source text: It is known that bromoform is safely and usefully degraded in anaerobic environments like livestock rumens where the enzyme methyl-coenzyme M reductase is present.

[6] = dairy cattle, at the maximum allowable limit

Row | Compound | Intake for a Cow Consuming 20.14 kg DM/day [1, 6] [mg/day] | Maximum Allowable Component Intake Limit per Daily kg of DM Consumption ([2]; dairy cattle) [mg/kg DMI] | Intake for a Cow Consuming 20.14 kg DM/day ([1]; bovine, in vivo) [mg/day] | Maximum Allowable Component Intake Limit per Daily kg of DM Consumption ([2]; bovine, in vivo) [mg/kg DMI] | also measured
1 | [Cd] [Cadmium] | 201 | 10 |  |  | 
2 | [Cr] [Chromium] | 2014 | 100 |  |  | 
3 | [Mg+2] [Magnesium] |  | 6000 | 120840 |  | 
4 | [Co] [Cobalt] | 504 | 25 |  |  | 
5 | Copper |  |  | 806 | 40 | 
6 | [Zn] [Zinc] | 10070 | 500 |  |  | 
7 | [Fe] [Iron] |  |  | 10070 | 500 | 
8 | Arsenic | 604 | 30 |  |  | 
9 | [B] [Boron] |  |  | 3021 | 150 | 
10 | S1SSSSSSS1 [Sulfur] | 60420 | 3000 |  |  | 
11 | Sodium | 1706704 | 84742 |  |  | 
12 | BrC(Br)Br [bromoform] |  |  |  |  | Slope-Reduction in methane intensity (g CH4/kg milk) per normalized unit bromoform intake (mg/kg of NDF) [3]: −0.049 g CH4/kg milk per mg/kg of NDF; absorption of bromoform into rumen wall or other organs [4]: not absorbed into the rumen wall, or other organs; bromoform in milk, meat or manure [4]: not found; propionate:acetate ratios in livestock rumens [5]: increases the propionate:acetate ratios
13 | Phosphorous |  |  | 140980 | 7000 | 
14 | [Mo] [Molybdenum] |  |  | 101 | 5 | 
15 | [Pb] [Lead] | 2014 | 100 |  |  | 
16 | [Al] [Aluminum] |  |  | 20140 | 1000 | 
17 | [Ca+2] [Calcium] | 302100 | 15000 |  |  | 
18 | [Se] [Selenium] | 101 |  |  | 5 | 
19 | [Mn+2] [Manganese] | 40280 | 2000 |  |  | 
20 | [K+] [Potassium] |  |  | 402800 | 20000 | 
